Earlier results on one compound are cited in patent US20040076682A1, “Novel ophthalmic compositions” (priority 2001, published 2004).

Converted amounts (≈) assume the structure as drawn.

By MIC80 is commonly meant an inhibitory concentration at the 80% level, which refers to growth in some studies and to a panel of isolates in others.

This series has as its system Streptococcus sp. Conditions: Streptococcus sp clinical isolate of ocular infections.

On to `CCn1cc(C(=O)O)c(=O)c2cc(F)c(N3CCNCC3)cc21` [norfloxacin], for which the MIC80 was 12.5 µg/mL (≈ 39.1 µM).
